Patent US20100298242A1, “MASKING THE TASTE OF COMPOSITONS CONTAINING SALT” (priority 2006, published 2010)
Entries after “also recorded” stand apart in the source; their conditions may differ. Like-named read-outs stand apart in the source and are kept apart here. Where a SMILES comes first, the peptide text is derived from it.

Key:
[1] = in vivo; cited from earlier work
[2] = cited from earlier work
[3] = neotam as aspartame derivative; cited from earlier work
[4] = Organoleptic check of ORS solutions with a single sweetener; type: in vivo; conditions: 200 mg Na-cyclamate or quantity calculated to equal sweetening power per dose
Procedure: Permitted sweeteners were used for a taste test on ORS solutions. Different concentrations of 10 to 200 mg of the sweetener Na-cyclamate were weighed into the solids mixture. Na-cyclamate is a sodium salt like NaCl. In comparison to other sweeteners, it has a low sweetening power. It was to be found out whether the salty taste of the ORS solution can be masked as a function of concentration by Na-cyclamate. The powder mixtures were weighed out according to the composition of the WHO and dissolved in water according to the instruction.
After organoleptic checking, no salty taste was perceived for the ORS solution with a concentration of 200 mg Na-cyclamate.
The sweeteners were calculated to the standard concentration of the Na-cyclamate. The different sweetening power values of the sweeteners were used as the reference variable.
The calculated quantities of sweeteners were added to the ORS powder mixtures and dissolved in water. The following organoleptic test took place.

[5] = cited from earlier work; for ADI value/kg KG: acceptable daily intake per kg body weight
[6] = Acceptable daily intake (ADI) value and highest daily doses calculated from it; conditions: child weighing 10 kg; for Highest dose/sachet: four sachets a day
Excerpt: An E number is provided for each sweetener and an ADI value is defined. The “acceptable daily intake” (ADI) value gives the quantity in milligrams per kilogram of body weight (KG) of the substance, which can be taken daily for life without incurring damage.
ADI values (acceptable daily intake) were established for the sweeteners. Using the ADI values, maximum concentrations can be calculated, which may be applied daily by a substance without incurring damage for life. The sweetener addition to the ORS solutions is limited by the ADI values. According to the specialist information for preparation C, the therapeutic maximum dose is four sachets a day for babies and small children. […] The calculation relates to the bodyweight of a child weighing 10 kg.

[7] = ranking of the three sweeteners
Procedure: In order to use as few sweeteners as possible, two sweeteners from Table 3 are combined with one another in each case. The result is six combinations. […] As a result, the concentration with 40 mg for aspartame was only selected to be half as high as the maximally permissible daily highest limit. In order to ensure a comparability with the other sweeteners, the concentration of aspartame was also retained for the remaining combinations.
Proceeding from the tested concentration ratios of the combinations it was investigated whether the same masking of taste can be achieved by a reduction in dose of the sweeteners.

bladder carcinomas = conditions: cited from earlier work
[8] = Organoleptic test of ORS solutions with sugars and sugar alcohols; type: in vivo
Excerpt: Further sweetening agents were included in a taste testing. An addition of sugars and sugar alcohols has a substantially stronger effect on the total osmolarity of an ORS solution than the addition of sweeteners. […] In addition to the total osmolarity of the effective constituents of the ORS solutions, the values are outside the recommended limits of the WHO recommendations. The quantities to be added are not to be recommended either in relation to the promotion of caries and a laxative effective. […] A taste test was nevertheless carried out with the sugars and sugar alcohols. Complete dissolution took place in water and an organoleptic test took place with the calculated quantities. […] The concentrations of substances were reduced to such an extent that the maximum limit of the osmolarity of 311 mosmol/l was adhered to. […] The addition of sweeteners is to be preferred in each case with regard to side-effects, osmolarity and a complete masking of the salty taste.

[9] = sugars and sugar alcohols table
[10] = relative to saccharose = 1, sweeteners permitted in the European Union
[11] = calculated quantities (equal sweetness to 200 mg Na-cyclamate)
[12] = concentrations reduced so that maximum osmolarity of 311 mosmol/l is adhered to

For `CC1=CC(=O)NS(=O)(=O)O1` [Acesulfame], the “fate in the human organism (splitting, metabolism, elimination)” value (“fate in the human organism” for short) [1] is listed as “eliminated unchanged via the kidneys”.

In the case of `OC[C@H]1O[C@@H](O[C@H]2[C@H](O)[C@@H](O)C(O)O[C@@H]2CO)[C@H](O)[C@@H](O)[C@H]1O` (stereo partly drawn) [Lactose], the Sweetening power [2, 9] is listed as 0.2.

For `COC(=O)[C@H](Cc1ccccc1)NC(=O)[C@H](CC(=O)O)NCCC(C)(C)C` [Neotam], the hydrolytic stability [3] is listed as “better hydrolytic stability” and the Sweetening power ([2]; relative to saccharose) is listed as “about 10,000”.

In the case of `CC1=CC(=O)NS(=O)(=O)O1` [Acesulfame potassium], the “masking of the salty taste of the ORS solution” value ([4]; listed as acesulfame-K) is given as “salty taste was perceived to a lesser extent; also recorded: masking was achieved”, the “ADI value/kg KG” value [5] is given as 15 mg mg/kg KG and the Sweetening power [2, 10] is given as 200. The “Highest daily dose/10 kg BW” value [6] was 150 mg and the Highest dose/sachet [6] was 37.5 mg.

For `OC[C@H]1O[C@H](O[C@]2(CCl)O[C@H](CCl)[C@@H](O)[C@@H]2O)[C@H](O)[C@@H](O)[C@H]1Cl` [Sucralose], the “ADI value/kg KG” value [5] is listed as 15 mg mg/kg KG and the Sweetening power [2, 10] is listed as 600.

For `COc1ccc(CCC(=O)c2c(O)cc(O[C@@H]3O[C@H](CO)[C@@H](O)[C@H](O)[C@H]3O[C@@H]3O[C@@H](C)[C@H](O)[C@@H](O)[C@H]3O)cc2O)cc1O` [Neohesperidin dihydrochalcone], the “ADI value/kg KG” value [5] is listed as 5 mg mg/kg KG and the Sweetening power [2, 10] is listed as 1000.

For `O=S(=O)([O-])NC1CCCCC1.[Na+]` [Sodium cyclamate], the “masking of the salty taste of the ORS solution” value [4] is listed as “complete masking of taste; also recorded: masking was achieved”, the “ability to mask a salty taste” value [7] is listed as “highest” and the “ADI value/kg KG” value [5] is listed as 11 mg mg/kg KG. For the same molecule, the ADI value [5] was 11 mg per kg of bodyweight, the Sweetening power [2, 10] was 30 and the Sweetening power [2, 9] was 30. The “Highest daily dose/10 kg BW” value [6] was 110 mg and the Highest dose/sachet [6] was 27.5 mg.

For `O=C1NS(=O)(=O)c2ccccc21.[Na]` [Saccharin sodium], the “ADI value/kg KG” value [5] is listed as 5 mg mg/kg KG, the Sweetening power [2, 10] is listed as 500 and the “promotion of the growth of bladder carcinomas” value (bladder carcinomas) is listed as “suspected of promoting the growth of bladder carcinomas”. The “Highest daily dose/10 kg BW” value [6] was 50 mg and the Highest dose/sachet [6] was 12.5 mg.

For `OC[C@@H](O)[C@@H](O)[C@H](O)[C@H](O)CO` [Mannitol], the Sweetening power [2, 9] is listed as 0.4.

In the case of `COC(=O)[C@H](Cc1ccccc1)NC(=O)[C@@H](N)CC(=O)O` [Aspartame] (H-Asp-Phe-OMe), the “masking of the salty taste of the ORS solution” value [4] is listed as “salty taste was perceived to a lesser extent; also recorded: masking was achieved”, the “ADI value/kg KG” value [5] is listed as 40 mg mg/kg KG and the “fate in the human organism” value [1] is listed as “metabolised in the body”. For the same molecule, the Sweetening power [2, 10] was 200, the “Highest daily dose/10 kg BW” value [6] was 400 mg and the Highest dose/sachet [6] was 100.0 mg.

In the case of `OC[C@@H](O)[C@@H](O[C@H]1O[C@H](CO)[C@@H](O)[C@H](O)[C@H]1O)[C@H](O)[C@@H](O)CO` [Maltitol], the “masking of the salty taste of the ORS solutions” value (“masking … of the ORS solutions” for short) [8, 11] is listed as “masking of the salty taste of the ORS solutions could substantially be achieved”, the “masking … of the ORS solutions” value [8, 12] is listed as “substantially not salty, but very sour and not sweet” and the Sweetening power [2, 9] is listed as 0.9.

For Isomalt, the Sweetening power [2, 9] is given as 0.45.

For `OC[C@@H](O)[C@@H](O)[C@H](O)[C@@H](O)CO` [Sorbitol], the Sweetening power [2, 9] is given as 0.6.

For Thaumatin, the “masking of the salty taste of the ORS solution” value [4] is given as “could also no longer be masked”, the “ADI value/kg KG” value [5] is given as 5 mg mg/kg KG and the Sweetening power [2, 10] is given as 3000.

For `OC[C@H]1O[C@@](CO)(O[C@H]2O[C@H](CO)[C@@H](O)[C@H](O)[C@H]2O)[C@@H](O)[C@@H]1O` [Saccharose], the “masking … of the ORS solutions” value [8, 11] is given as “masking of the salty taste of the ORS solutions could substantially be achieved”, the “masking … of the ORS solutions” value [8, 12] is given as “No masking of taste could be achieved” and the Sweetening power ([2]; relative to saccharose) is given as “one”. For the same molecule, the Sweetening power [2, 9] was 1.

For `CC1=CC(=O)NS(=O)(=O)O1.COC(=O)[C@H](Cc1ccccc1)NC(=O)[C@@H](N)CC(=O)O` [Aspartame-acesulfame salt] (H-Asp-Phe-OMe), the “masking of the salty taste of the ORS solution” value [4] is listed as “salty taste was perceived to a lesser extent”, the “fate in the human organism” value [1] is listed as “split into its original components aspartame and acesulfame” and the Sweetening power [2, 10] is listed as 350.
